This passage reports Cell binding results from PMC10388305, “Synthesis and Evaluation of a Monomethyl Auristatin E—Integrin αvβ6 Binding Peptide–Drug Conjugate for Tumor Targeted Drug Delivery” (Journal of Medicinal Chemistry, 2023).

The experiment concerns MIA PaCa-2 (−) cells. The experiment is described as follows: Cell binding assay, MIA PaCa-2. The following applies: 1 h, 37 °C, γ-counter, n = 3. The format is cell-based. The source says:
Binding to cells with minimal to no expression of integrin αvβ6 was low at 4.4 ± 0.1% to DX3puro cells and 7.9 ± 0.4% to pancreatic MIA PaCa-2 cells. Binding of [^64Cu]PDC-1 to DX3puroβ6 (+) and BxPC-3 (+) was reduced by adding increasing amounts of DOTA-PDC-1, illustrating that the αvβ6-selective uptake could be blocked (Figure S3). Internalization of [^64Cu]-PDC-1 into cells was high with >50% of the bound radioactivity internalized for all cells expressing the integrin αvβ6. In comparison, cell binding of [^64Cu]2 to DX3puroβ6 (+) cells was 58.8 ± 2.3, and 3.3 ± 0.4% to the DX3puro (−) cells.
Cell binding and internalization assay. Binding and internalization were determined as previously described. […] The fraction of bound radioactivity was determined with a γ-counter (by measuring cell pellet and combined supernatants). To determine the fraction of internalized radioactivity, the cells were re-pelleted, and re-suspended in acidic wash buffer (0.2 M sodium acetate, 0.5 M sodium chloride, pH = 2.5, 300 μL, 4 °C, 5 min) to release surface bound activity, followed by a wash with PBS (300 μL). The internalized fraction was determined with a γ-counter (cell pellet vs. radioactivity released into supernatant). A Wizard 1470 or Wizard 2 2470 automatic γ-counter (Perkin-Elmer, Waltham, MA) was used to measure radioactivity samples. […]

Regarding `CC[C@H](C)[C@@H]([C@@H](CC(=O)N1CCC[C@H]1[C@H](OC)[C@@H](C)C(=O)N[C@H](C)[C@@H](O)c1ccccc1)OC)N(C)C(=O)[C@@H](NC(=O)[C@H](C(C)C)N(C)C(=O)OCc1ccc(NC(=O)[C@H](CCCNC(N)=O)NC(=O)[C@@H](NC(=O)CCOCCOCCNC(=O)CCN2C(=O)CC(SC[C@H](NC(=O)CN3CCN(CC(=O)O)CCN(CC(=O)O)CCN(CC(=O)O)CC3)C(=O)NCCOCCOCCOCCOCCOCCOCCOCCOCCOCCOCCOCCOCCOCCOCCOCCOCCOCCOCCOCCOCCOCCOCCOCCOCCOCCOCCOCCOCCC(=O)N[C@@H](CC(N)=O)C(=O)N[C@@H](C)C(=O)N[C@H](C(=O)N3CCC[C@H]3C(=O)N[C@@H](CC(N)=O)C(=O)N[C@@H](CC(C)C)C(=O)N[C@@H](CCCNC(=N)N)C(=O)NCC(=O)N[C@@H](CC(=O)O)C(=O)N[C@@H](CC(C)C)C(=O)N[C@@H](CCC(N)=O)C(=O)N[C@H](C(=O)N[C@@H](CC(C)C)C(=O)N[C@@H](C)C(=O)N[C@@H](CCC(N)=O)C(=O)N[C@@H](CCCNC(=N)N)C(=O)N[C@H](C(=O)N[C@@H](C)C(=O)N[C@@H](CCCNC(=N)N)C(=O)N[C@H](C(=O)NCCOCCOCCOCCOCCOCCOCCOCCOCCOCCOCCOCCOCCOCCOCCOCCOCCOCCOCCOCCOCCOCCOCCOCCOCCOCCOCCOCCOCCC(N)=O)[C@@H](C)O)C(C)C)C(C)C)C(C)C)C2=O)C(C)C)cc1)C(C)C` (stereo partly shown) [[^64Cu]PDC-1, metal not drawn], the Cell binding came out at 7.9 ± 0.4%.
